Where two headings read alike, the source gives them in different places. Starred links: 1 amine or outer side, 2 acyl side, 3 side chain; linkers in the order of their positions; H or OH if unused. Positions of bridges follow the written chain, without caps; N, C: chain ends. Non-standard residues stand in square brackets, D forms with d. Residues, ends and D or L forms follow the SMILES beside them. Chains are numbered I, II in the order given. Actinocin(9to1) = Cc1c2oc3c(C)ccc(C(=O)[*:1])c3nc-2c(C(=O)[*:2])c(N)c1=O; NMeV = CN[C@H](C(=O)O)C(C)C; Sar = CNCC(=O)O
Legend:
[1] = test system: BNL CL2 (mouse normal hepatic cells); experiment: Cell proliferation (MTT) assay, BNL CL2; type: cell-based; conditions: Mus musculus, BNL CL.2; 48 h, MTT; read-out: IC50 cell growth inhibition, BNL CL2
Experimental: (§1) All 10 human cancer cell lines were maintained at 37 °C in 5% CO2 in RPMI-1640 medium, supplemented with 10% foetal calf serum and 100 μg/ml normocin. The 10 cancer cell lines used for screening were all obtained from ATCC (Manassas, VA, USA); they were the NSCLC (a form of cancer that is resistant to chemotherapy) lines: NCI-H460 (pRb^+, p53^+), A549 (pRb^+, p53^+), Calu-1 (pRb^+, p53-null), NCI-H1299 (pRb^+, p53-null), NCI-H358 (pRb-null, p53-null); the colon cancer line LS174T (pRb^+, p53^+); the prostate cancer line PC-3 (pRb^+, p53-null); the pancreatic cancer line MiaPaca (pRb^+, p53-mutant). The genotypes within brackets indicate the status of the tumour suppressor proteins pRb and p53. The mouse embryonic normal hepatic cell line (BNL CL2) and its SV40 large T-antigen-transformed counterpart cell line (BNL SV A.8) were also purchased from ATCC. The large T-antigen inactivates the tumour suppressor proteins p53 and pRb. The detailed procedure of cell proliferation (MTT) assay and IC50 determination was described previously.[32]

[2] = test system: NCI-H1299 (NSCLC; p53 null, pRb+); experiment: Cell proliferation (MTT) assay, NCI-H1299; type: cell-based; conditions: Homo sapiens, 48 h, read-out: IC50 cell growth inhibition, NCI-H1299
Experimental: as §1

[3] = test system: NCI-H358 (NSCLC; p53 null, pRb null); experiment: Cell proliferation (MTT) assay, NCI-H358; type: cell-based; conditions: Homo sapiens, 48 h, read-out: IC50 cell growth inhibition, NCI-H358
Experimental: as §1

pBluescript plasmid DNA [4] = experiment: EtBr displacement assay; type: binding; conditions: 1.3 μM EtBr
Experimental: The assays were performed in a 96-well plate with clear bottom (Costar, Washington, DC, USA). The assay involved the addition of 10 μl of 10 × concentrated stock solution of compounds (dissolved in DMSO and further diluted in EtBr displacement assay buffer) to 90 μl of reaction mixture containing 6 μg of purified pBlueScript DNA and 1.3 μM EtBr in EtBr displacement assay buffer with final pH 7.4. Equivalent amounts of DMSO were added to the vehicle controls. In addition to control samples (DNA+EtBr), test samples (DNA+EtBr+test compounds), blank 1 (EtBr only), blank 2 (DNA only), wells containing DNA and compound were also prepared to test any change in the background fluorescence readings. The reduction in relative fluorescence counts was monitored ([…]) and recorded after 1 min equilibration time. Fascaplysin and actinomycin D, which are known to intercalate d-s DNA, were used as standard compounds in assay. The mean control and test readings were corrected by subtracting blank readings. The percentage fluorescence in the test samples in reaction with control samples was calculated by using following formula: […]

Cdk1-cyclin B1 = Cdk1-cyclin B1 (Homo sapiens, UniProt P06493); experiment: In vitro kinase assay, Cdk1-cyclin B1 (in-house); type: biochemical; conditions: three independent experiments; read-out: IC50 (mean±S.D.), Cdk1-cyclin B1
Experimental: (§2) The in vitro kinase assays for testing against Cdk4-cyclin D1, Cdk2-cyclin A, Cdk1-cyclin B1 and Cdk9-cyclin T1 were performed in-house. The methodology and results have been reported previously.[20], [30], [31], [32], [45] The kinase profiling for 58 representative kinases was carrried out commercially at Millipore Bioscience Division, Livingston, UK.

[5] = test system: PC-3 (prostate; p53 null, pRb+); experiment: Cell proliferation (MTT) assay, PC-3; type: cell-based; conditions: Homo sapiens, 48 h, read-out: IC50 cell growth inhibition, PC-3
Experimental: as §1

A549 (NSCLC; p53+, pRb+) = experiment: Cell proliferation (MTT) assay, A549; type: cell-based; conditions: Homo sapiens, 48 h, read-out: IC50 cell growth inhibition, A549
Experimental: as §1

[6] = test system: Calu-1 (NSCLC; p53 null, pRb+); experiment: Cell proliferation (MTT) assay, Calu-1; type: cell-based, human; conditions: Homo sapiens, Calu-1; 48 h, MTT; read-out: IC50 cell growth inhibition, Calu-1
Experimental: as §1

[7] = test system: LS174T (colorectal carcinoma; p53+, pRb+); experiment: Cell proliferation (MTT) assay, LS174T; type: cell-based; conditions: Homo sapiens, 48 h, read-out: IC50 cell growth inhibition, LS174T
Experimental: as §1

[8] = test system: BNL SV A.8 (mouse hepatic; SV40-mediated transformed cells); experiment: Cell proliferation (MTT) assay, BNL SV A.8; type: cell-based; conditions: Mus musculus; 48 h, MTT; read-out: IC50 cell growth inhibition, BNL SV A.8
Experimental: as §1

[9] = test system: MiaPaCa (pancreatic; p53His273mut, pRb+); experiment: Cell proliferation (MTT) assay, MiaPaCa; type: cell-based; conditions: Homo sapiens, MIA PaCa-2, 48 h, read-out: IC50 cell growth inhibition, MiaPaCa
Experimental: as §1

[10] = test system: NCI-H460 (NSCLC; p53+, pRb+); experiment: Cell proliferation (MTT) assay, NCI-H460; type: cell-based; conditions: Homo sapiens, 48 h, read-out: IC50 cell growth inhibition, NCI-H460
Experimental: as §1

Cdk4-cyclin D1 [11] = biological target: T1, Cdk4-cyclin D1 (Homo sapiens, UniProt P11802); experiment: In vitro kinase assay, Cdk4-cyclin D1 (in-house); type: biochemical; conditions: three independent experiments; read-out: IC50 (mean±S.D.), Cdk4-cyclin D1
Experimental: as §2

Cdk9-cyclin T1 = Cdk9-cyclin T1 (Homo sapiens, UniProt P50750); experiment: In vitro kinase assay, Cdk9-cyclin T1 (in-house); type: biochemical; conditions: three independent experiments; read-out: IC50 (mean±S.D.), Cdk9-cyclin T1
Experimental: as §2

Cdk2-cyclin A = Cdk2-cyclin A (Homo sapiens, UniProt P24941); experiment: In vitro kinase assay, Cdk2-cyclin A (in-house); type: biochemical
Experimental: as §2

Calu-1 cells = test system: Calu-1 cells; parameters: method as in PMID 16493461; conditions: cited from earlier work
pBluescript plasmid DNA [12] = experiment: Topoisomerase I catalysed DNA relaxation or unwinding assay; type: biochemical
Experimental: For assay, 5 nM supercoiled pBluescript d-s plasmid DNA and 10 U of topoisomerase-I active enzyme were used in each reaction well. To ensure that the assay determines the DNA-intercalating property of compounds and not topoisomerase I inhibition, in a parallel experiment relaxed plasmid DNA was first prepared by treating with topo I enzyme for 30 min and then used as an initial substrate for the assay. DNA relaxation assays were performed in the presence or absence of compounds in 40 μl of DNA unwinding assay buffer. After 30 min incubation at 37 °C, reaction mixtures were treated with 3 μl of 250 mM EDTA and extracted with phenol/chloroform. The DNA was dissolved in tris-EDTA buffer, pH 8.0. The samples (20 μl) were treated with 2 μl of 2.5% SDS, mixed with 2.5 μl agarose gel loading buffer (10x) and subjected to electrophoresis on a 0.8% agarose gel without EtBr (separating the DNA in the presence of EtBr would convert the relaxed DNA into the supercoiled form). After the electrophoretic separation, DNA bands were stained with 1 μg/ml EtBr and visualized using a UV illuminator. The compounds were compared with fascaplysin, which is a known DNA-intercalating molecule. Camptothecin, which is a known topoisomerase- I inhibitor, was used to test the activity and inhibition of enzyme.

Cdk4-cyclin D1 [13] = biological target: T1, Cdk4-cyclin D1; parameters: method as in PMID 12941311, PMID 15165138; conditions: cited from earlier work
NCI-H358 cells = experiment: Flow cytometric cell cycle analysis, synchronized NCI-H358; type: cell-based, human; conditions: NCI-H358, hydroxyurea 250 μM, 18 h
Experimental: The untreated (control) and treated (with test compounds) cells were harvested by trypsinization, washed once with PBS and then fixed in 70% chilled (−20 °C) ethanol for minimum 1 h. After the fixation step, cells were centrifuged for 5 min at 3000 × g at room temperature, and the pellet was suspended in PBS containing 50 μg/ml propidium iodide (Sigma-Aldrich, Dorset, UK; cat. no. P-4170) and 0.5 mg/ml DNase-free ribonuclease (Sigma-Aldrich; cat. no. R-5503). The cells were stained for 1 h in the dark at 4 °C. Cell cycle analysis was performed on the Beckman Coulter (Epics Altra) fluorescence-activated cell sorter (Beckman Coulter UK Ltd, Buckinghamshire, UK). To gate all the events that represent single cells, and not cell doublets or cell clumps, the following analyses were performed on the samples. Cytograms of propidium iodide fluorescence peak signal versus integrated fluorescence or the linear signal were plotted. All data points on the straight line were isolated in a single gate and the gated data was further used for plotting a histogram that represents a complete cell cycle. The total number of events was not allowed to exceed 200 events per s. Data acquisition was stopped after a minimum of 10 000 events had been collected.

tubulin = experiment: Cell-free tubulin polymerization assay in vitro; type: biochemical; conditions: 10 μM; control 19 mOD/min
Experimental: The purified tubulin was obtained commercially (Cytoskeleton Inc., Denver, CO, USA) and the polymerization assays were carried out according to the method described previously.[36] […] The resulting polymerization curves are representative of the three phases of microtubule polymerization, namely nucleation, growth and steady-state equilibrium. Paclitaxel and nocodazole were used in the assay as a known enhancer and inhibitor of tubulin polymerization, respectively. The ability of BPT to inhibit tubulin polymerization in vitro was determined according to the manufacturer's instructions. Briefly, tubulin protein (3 mg/ml) was polymerized in GTP buffer (80 mM PIPES, pH 6.9, 2 mM MgCl2, 0.5 mM EGTA, 10.2% glycerol and 1 mM GTP) in the presence of a range of BPT concentrations at 37 °C in a temperature-regulated Biotech spectrophotometer (Potton, Bedfordshire, UK). The absorbance (at 340 nm) kinetics of 61 cycles for each sample was studied and the readings were recorded at an interval of 1 min.

[14] = three independent experiments, read-out: IC50 (mean±S.D.), Cdk2-cyclin A

Sequence of Cdk1-cyclin B1 (P06493 whole entry): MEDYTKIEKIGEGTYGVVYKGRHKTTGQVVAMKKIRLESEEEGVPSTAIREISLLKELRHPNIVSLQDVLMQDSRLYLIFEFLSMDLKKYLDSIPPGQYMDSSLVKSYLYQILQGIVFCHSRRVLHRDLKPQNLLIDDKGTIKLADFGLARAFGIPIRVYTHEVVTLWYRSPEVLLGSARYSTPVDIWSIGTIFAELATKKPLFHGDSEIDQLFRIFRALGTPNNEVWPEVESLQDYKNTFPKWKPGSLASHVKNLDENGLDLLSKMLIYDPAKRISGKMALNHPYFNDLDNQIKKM
Sequence of Cdk1-cyclin B1 (P14635 whole entry partner): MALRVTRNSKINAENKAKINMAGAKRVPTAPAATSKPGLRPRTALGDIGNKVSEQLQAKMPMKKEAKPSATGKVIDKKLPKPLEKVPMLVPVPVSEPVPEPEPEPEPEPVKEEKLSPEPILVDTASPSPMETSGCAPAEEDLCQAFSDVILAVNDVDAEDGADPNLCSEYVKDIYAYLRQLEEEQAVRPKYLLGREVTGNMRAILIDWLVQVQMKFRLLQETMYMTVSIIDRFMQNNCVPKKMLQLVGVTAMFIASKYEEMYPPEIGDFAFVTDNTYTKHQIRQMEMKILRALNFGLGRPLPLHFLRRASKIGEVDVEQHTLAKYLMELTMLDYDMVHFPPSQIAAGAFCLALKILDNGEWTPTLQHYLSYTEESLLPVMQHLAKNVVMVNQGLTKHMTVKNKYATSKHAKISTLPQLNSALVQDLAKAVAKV
T1 sequence (P11802 whole entry): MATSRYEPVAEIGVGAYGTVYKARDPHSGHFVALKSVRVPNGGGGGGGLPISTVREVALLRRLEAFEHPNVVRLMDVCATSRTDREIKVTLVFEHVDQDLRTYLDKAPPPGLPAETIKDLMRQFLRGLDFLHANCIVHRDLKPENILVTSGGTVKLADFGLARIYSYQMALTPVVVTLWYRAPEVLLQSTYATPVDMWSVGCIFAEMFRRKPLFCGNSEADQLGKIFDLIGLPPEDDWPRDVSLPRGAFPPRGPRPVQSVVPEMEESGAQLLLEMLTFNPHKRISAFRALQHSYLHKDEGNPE
T1 sequence (P24385 whole entry partner): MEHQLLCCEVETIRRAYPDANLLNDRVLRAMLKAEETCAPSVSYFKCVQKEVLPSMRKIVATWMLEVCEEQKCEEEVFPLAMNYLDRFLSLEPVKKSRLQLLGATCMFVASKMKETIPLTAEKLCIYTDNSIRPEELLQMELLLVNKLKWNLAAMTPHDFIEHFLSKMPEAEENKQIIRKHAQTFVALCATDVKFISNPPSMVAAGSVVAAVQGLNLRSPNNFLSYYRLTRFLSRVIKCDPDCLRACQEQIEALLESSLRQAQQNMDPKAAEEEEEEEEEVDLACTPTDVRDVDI
Sequence of Cdk9-cyclin T1 (P50750 whole entry): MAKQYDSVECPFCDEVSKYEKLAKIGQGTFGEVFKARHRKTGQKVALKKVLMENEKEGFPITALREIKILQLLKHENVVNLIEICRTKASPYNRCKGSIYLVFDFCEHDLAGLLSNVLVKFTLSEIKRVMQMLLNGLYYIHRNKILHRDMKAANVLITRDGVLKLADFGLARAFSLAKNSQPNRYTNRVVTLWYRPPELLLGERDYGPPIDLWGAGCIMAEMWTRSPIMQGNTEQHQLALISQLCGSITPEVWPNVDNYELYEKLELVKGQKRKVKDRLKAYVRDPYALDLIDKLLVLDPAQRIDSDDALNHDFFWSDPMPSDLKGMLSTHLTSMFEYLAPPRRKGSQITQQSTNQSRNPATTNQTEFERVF
Sequence of Cdk9-cyclin T1 (O60563 whole entry partner): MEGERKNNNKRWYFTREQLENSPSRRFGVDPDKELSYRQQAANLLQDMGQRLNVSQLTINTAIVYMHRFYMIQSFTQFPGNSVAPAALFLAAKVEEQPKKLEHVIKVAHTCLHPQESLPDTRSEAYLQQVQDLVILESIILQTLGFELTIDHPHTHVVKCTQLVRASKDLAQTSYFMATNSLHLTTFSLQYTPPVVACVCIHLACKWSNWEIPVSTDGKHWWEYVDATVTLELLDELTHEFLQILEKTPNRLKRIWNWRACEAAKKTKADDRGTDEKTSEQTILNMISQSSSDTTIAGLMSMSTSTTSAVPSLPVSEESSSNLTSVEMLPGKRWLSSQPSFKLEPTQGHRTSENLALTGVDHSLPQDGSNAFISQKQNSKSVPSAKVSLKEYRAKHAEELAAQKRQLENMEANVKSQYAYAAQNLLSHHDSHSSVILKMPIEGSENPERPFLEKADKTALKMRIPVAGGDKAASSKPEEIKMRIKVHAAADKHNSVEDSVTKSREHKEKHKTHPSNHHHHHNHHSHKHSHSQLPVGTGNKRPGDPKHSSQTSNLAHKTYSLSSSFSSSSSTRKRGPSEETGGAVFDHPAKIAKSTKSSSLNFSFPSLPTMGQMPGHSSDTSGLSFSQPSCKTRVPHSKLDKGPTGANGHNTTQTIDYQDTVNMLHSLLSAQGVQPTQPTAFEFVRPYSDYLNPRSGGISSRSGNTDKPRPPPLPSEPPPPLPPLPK

Row | Structure (SMILES) | IC50 [1] [µM] | IC50 [2] [µM] | IC50 [3] [µM] | EtBr displacement from DNA (pBluescript plasmid DNA [4]; pH 7.4) | IC50 (Cdk1-cyclin B1) [µM] | IC50 [5] [µM] | IC50 (A549 (NSCLC; p53+, pRb+)) [µM] | IC50 [6] [µM] | IC50 [7] [µM] | IC50 [8] [µM] | IC50 [9] [µM] | IC50 [10] [µM] | IC50 (Cdk4-cyclin D1 [11]) [µM] | IC50 (Cdk9-cyclin T1) [µM] | IC50 (Cdk2-cyclin A; [14]) [µM] | other results
1 | COc1ccccc1C(=O)N1CCc2c([nH]c3ccccc23)C1 [CA198] | 37 | 35 | 28 | No EtBr displacement up to 100 μM | > 500 | 42 | 46 | 92 | 33 | 40 | 43 | 29 | 25 ± 5.5 | > 1000 | 861 ± 29 | 
2 | COc1cccc(C(=O)N2CCc3c([nH]c4ccccc34)C2)c1 [CA199] | 6.5 | 4.5 | 3.5 | No EtBr displacement up to 100 μM | > 500 | 13.1 | 8 | 47 | 7.1 | 8.2 | 8.5 | 6.2 | 24.4 ± 4 | > 1000 | 766 ± 33 | phase of cell cycle block in Calu-1 cells (Calu-1 cells): blocks only at the G0/G1 phase
3 | CC(C)(C)c1ccc(C(=O)N2CCc3c([nH]c4ccccc34)C2)cc1 [CA211] | 27 | 30 | 25 | No EtBr displacement up to 100 μM | > 500 | 32 | 31 | 54 | 29 | 35 | 29 | 22 | 44 ± 3 | > 1000 | 720 ± 24 | 
4 | O=C1c2ccccc2-[n+]2ccc3c([nH]c4ccccc43)c21 [Fascaplysin, fascaplysin, reference compound] |  |  |  | Displaces EtBr at 1 μM | > 250 | 0.92 | 0.69 | 1.3 | 0.88 |  | 0.88 |  |  | > 250 |  | EtBr displacement from DNA (pBluescript plasmid DNA [4]; pH 7.4, listed as fascaplysin): readily dislodges the bound EtBr; state of relaxed (negatively supercoiled) plasmid DNA after treatment (pBluescript plasmid DNA [12]; relaxed pBluescript DNA as substrate, BPT up to 100 μM, fascaplysin 1 μM): does not remain intact; hindrance of topoisomerase-I catalysed DNA relaxation (pBluescript plasmid DNA [12]; supercoiled pBluescript DNA, fascaplysin 10 and 1 µM, BPT 10 and 100 µM): hinder topoisomerase-I catalysed DNA relaxation; IC50 (Cdk4-cyclin D1 [13]): ~0.35 µM; IC50 (Cdk2-cyclin A): > 250 µM
5 | NC(=O)NO [Hydroxyurea, hydroxyurea, reference compound] |  |  |  |  |  |  |  |  |  |  |  |  |  |  |  | cells in G0/G1 (NCI-H358 cells): 77%
6 | COC(=O)Nc1nc2ccc(C(=O)c3cccs3)cc2[nH]1 [Nocodazole, nocodazole, reference compound] |  |  |  |  |  |  |  |  |  |  |  |  |  |  |  | Vmax of tubulin polymerization (tubulin): 4.5 mOD/min
7 | Cc1c2oc3c(C)ccc(C(=O)N[C@@H]4C(=O)N[C@H](C(C)C)C(=O)N5CCC[C@H]5C(=O)N(C)CC(=O)N(C)[C@@H](C(C)C)C(=O)O[C@@H]4C)c3nc-2c(C(=O)N[C@@H]2C(=O)N[C@H](C(C)C)C(=O)N3CCC[C@H]3C(=O)N(C)CC(=O)N(C)[C@@H](C(C)C)C(=O)O[C@@H]2C)c(N)c1=O [actinomycin D, reference compound] (I: T[dV]P[Sar][NMeV] / II: T[dV]P[Sar][NMeV]; ester I:1-I:C, II:1-II:C; linker I:N-II:N via Actinocin(9to1)) |  |  |  | readily dislodges the bound EtBr |  |  |  |  |  |  |  |  |  |  |  | 
8 | CC(=O)O[C@H]1C(=O)[C@@]2(C)[C@H]([C@H](OC(=O)c3ccccc3)[C@]3(O)C[C@H](OC(=O)[C@H](O)[C@@H](NC(=O)c4ccccc4)c4ccccc4)C(C)=C1C3(C)C)[C@]1(OC(C)=O)CO[C@@H]1C[C@@H]2O [paclitaxel, reference compound] |  |  |  |  |  |  |  |  |  |  |  |  |  |  |  | Vmax of tubulin polymerization (tubulin): 61 mOD/min
